The values below come from article PMC5908784, “Extracellular loops 2 and 3 of the calcitonin receptor selectively modify agonist binding and efficacy” (Biochemical Pharmacology, 2018).

Molecules are shown by their SMILES. Positions count from the first letter of the chain named. Read-outs that look alike come from different tables or passages of the source. Where a SMILES comes first, the peptide text is derived from it. Bridges are numbered along the chain shown (N, C = ends).

Common to all, as to format: cell-based
Assay [1] deals with T1, hCTR I279A (Homo sapiens, UniProt P30988, I279A).
T1 construct: expressed in transfected cells
T1 sequence (P30988 25-474 I279A): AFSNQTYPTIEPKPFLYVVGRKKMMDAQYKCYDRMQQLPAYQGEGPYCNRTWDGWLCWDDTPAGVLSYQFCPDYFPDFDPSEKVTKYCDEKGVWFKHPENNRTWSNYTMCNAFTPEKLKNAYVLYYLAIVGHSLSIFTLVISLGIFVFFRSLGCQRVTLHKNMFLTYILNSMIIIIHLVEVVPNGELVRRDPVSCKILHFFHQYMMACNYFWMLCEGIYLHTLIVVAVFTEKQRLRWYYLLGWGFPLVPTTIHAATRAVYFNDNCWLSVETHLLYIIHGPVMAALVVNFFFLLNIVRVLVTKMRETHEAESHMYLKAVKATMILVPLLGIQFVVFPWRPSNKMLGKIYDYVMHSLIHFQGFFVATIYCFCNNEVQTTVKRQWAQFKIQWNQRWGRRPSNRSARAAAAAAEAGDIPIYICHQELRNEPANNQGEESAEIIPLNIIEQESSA
In words: cAMP accumulation. The following applies: mean ± S.E.M.; for Emax: cAMP maximal response, SEM; for EC50: cAMP, CV1-FlpIn cells, 30 min, IBMX. The procedure, abridged: (§1)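 Cells expressing the receptor mutant were seeded overnight, then stimulated with increasing ligand concentrations for 30 min in the presence of IBMX. After ethanol extraction and drying at room temperature, cAMP was measured and normalized to the 100 μM forskolin response. EC50 and Emax came from 3-parameter logistic fits.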
On the technique in general: Cyclic AMP is a second messenger, typically raised through Gs and lowered through Gi signalling.

Assay [2] addresses T2, hCTR L298A (Homo sapiens, UniProt P30988, L298A).
T2 construct: c-Myc (N); expressed in transfected cells
T2 sequence (P30988 25-474 L298A): T1 sequence (P30988 25-474 I279A) with A255I, L274A
In words: cAMP accumulation. The following applies: mean ± S.E.M.; for Emax: cAMP maximal response, SEM; for EC50: cAMP, CV1-FlpIn cells, 30 min, IBMX. In short, it runs like this: as §1

For assay [3], the target named is T3, hCTR T295A (Homo sapiens, UniProt P30988, T295A).
T3 construct: c-Myc (N); expressed in transfected cells
T3 sequence (P30988 25-474 T295A): T1 sequence (P30988 25-474 I279A) with A255I, T271A
Description: cAMP accumulation. The following applies: mean ± S.E.M.; for Emax: cAMP maximal response, SEM; for EC50: cAMP, CV1-FlpIn cells, 30 min, IBMX. In short, it runs like this: as §1

Assay [4] concerns the target T4, hCTR F356A (Homo sapiens, UniProt P30988, F356A).
T4 construct: c-Myc (N); expressed in transfected cells
T4 sequence (P30988 25-474 F356A): T1 sequence (P30988 25-474 I279A) with A255I, F332A
Description: IP1 accumulation. The following applies: read-out: Emax (% WT), SEM. The procedure, abridged:
(§2)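 Concentration-response curves were fitted to a 3-parameter logistic model to estimate EC50 and Emax. Cells had been exposed to ligand for 60 min with LiCl, and lysate IP1 determined by HTRF, with normalization to 100 μM ATP.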

For assay [5], the target named is T5, hCTR P363A (Homo sapiens, UniProt P30988, P363A).
T5 construct: expressed in transfected cells
T5 sequence (P30988 25-474 P363A): T1 sequence (P30988 25-474 I279A) with A255I, P339A
Description: IP1 accumulation. The following applies: mean ± S.E.M.; for Emax: IP1 maximal response, SEM. In short, it runs like this:
as §2

Broadly, the Emax is the maximal effect, on the per cent scale that the assay sets. A word on the EC50: it is the concentration giving half of the maximal effect. Low readings indicate higher potency in that assay, high ones lower potency in that assay.

Turning to `CC[C@H](C)[C@H](NC(=O)[C@H](C)NC(=O)[C@@H](NC(=O)[C@H](CCC(N)=O)NC(=O)[C@@H]1CCCN1C(=O)[C@H](Cc1ccccc1)NC(=O)[C@@H](NC(=O)[C@H](Cc1c[nH]cn1)NC(=O)[C@H](Cc1ccccc1)NC(=O)[C@H](CCCCN)NC(=O)[C@H](CC(N)=O)NC(=O)[C@H](Cc1ccccc1)NC(=O)[C@H](CC(=O)O)NC(=O)[C@H](CCC(N)=O)NC(=O)[C@@H](NC(=O)[C@H](Cc1ccc(O)cc1)NC(=O)[C@@H](NC(=O)CNC(=O)[C@H](CC(C)C)NC(=O)[C@H](CCSC)NC(=O)[C@@H]1CSSC[C@H](N)C(=O)NCC(=O)N[C@@H](CC(N)=O)C(=O)N[C@@H](CC(C)C)C(=O)N[C@@H](CO)C(=O)N[C@@H]([C@@H](C)O)C(=O)N1)[C@@H](C)O)[C@@H](C)O)[C@@H](C)O)[C@@H](C)O)C(=O)NCC(=O)N[C@H](C(=O)NCC(=O)N[C@@H](C)C(=O)N1CCC[C@H]1C(N)=O)C(C)C` [hCT], the maximum response (Emax) amounted to 91 ± 4% in assay [1], 103 ± 6% in assay [2], 127 ± 11% in assay [3] and 69 ± 6% in assay [4].
In the case of `CC(C)C[C@H](NC(=O)CNC(=O)[C@H](C)NC(=O)[C@H](CC(C)C)NC(=O)[C@H](CCCNC(=N)N)NC(=O)[C@H](Cc1cnc[nH]1)NC(=O)[C@@H](NC(=O)[C@@H](NC(=O)[C@@H]1CSSC[C@H](NC(=O)[C@H](C)N)C(=O)N[C@@H](CC(=O)O)C(=O)N[C@@H]([C@@H](C)O)C(=O)N[C@@H](C)C(=O)N[C@@H]([C@@H](C)O)C(=O)N1)C(C)C)[C@@H](C)O)C(=O)N[C@@H](CC(C)C)C(=O)N[C@@H](CO)C(=O)N[C@@H](CCCNC(=N)N)C(=O)N[C@@H](CO)C(=O)NCC(=O)NCC(=O)N[C@H](C(=O)N[C@H](C(=O)N[C@@H](CCCCN)C(=O)N[C@@H](CC(N)=O)C(=O)N[C@@H](CC(N)=O)C(=O)N[C@@H](Cc1ccccc1)C(=O)N[C@H](C(=O)N1CCC[C@H]1C(=O)N[C@H](C(=O)N[C@@H](CC(N)=O)C(=O)N[C@H](C(=O)NCC(=O)N[C@@H](CO)C(=O)N[C@@H](CCCCN)C(=O)N[C@@H](C)C(=O)N[C@@H](Cc1ccccc1)C(N)=O)C(C)C)[C@@H](C)O)C(C)C)C(C)C)C(C)C` [hαCGRP], the maximal effect (Emax) in assay [1] came out at 139 ± 18%; in assay [2] it was 109 ± 17%; in assay [3], 79 ± 20%. In addition, the EC50 in assay [1] was 3.39 nM; in assay [2], 33.9 nM; in assay [3] it was 107 nM.
`CSCC[C@H](NC(=O)CNC(=O)[C@H](CO)NC(=O)[C@H](Cc1ccccc1)NC(=O)[C@H](CCCNC(=N)N)NC(=O)[C@H](Cc1c[nH]cn1)NC(=O)[C@H](Cc1ccccc1)NC(=O)[C@H](CC(N)=O)NC(=O)[C@H](CC(N)=O)NC(=O)[C@H](CC(C)C)NC(=O)[C@H](CC(N)=O)NC(=O)[C@H](CCCNC(=N)N)NC(=O)[C@H](Cc1c[nH]c2ccccc12)NC(=O)[C@H](Cc1ccc(O)cc1)NC(=O)[C@H](C)NC(=O)[C@H](CO)NC(=O)[C@H](CC(C)C)NC(=O)[C@@H](NC(=O)[C@@H]1CSSC[C@H](N)C(=O)N[C@@H](CO)C(=O)N[C@@H](CC(N)=O)C(=O)N[C@@H](CC(C)C)C(=O)N[C@@H](CO)C(=O)N[C@@H]([C@@H](C)O)C(=O)N1)C(C)C)C(=O)NCC(=O)N[C@@H](Cc1ccccc1)C(=O)NCC(=O)N1CCC[C@H]1C(=O)N[C@@H](CCC(=O)O)C(=O)N[C@H](C(=O)N1CCC[C@H]1C(N)=O)[C@@H](C)O` [pCT] (H-CSNLSTCVLSAYWRNLNNFHRFSGMGFGPETP-NH2; disulfide 1-7): the Emax was 97 ± 4% in assay [1], 118 ± 7% in assay [2], 123 ± 8% in assay [3] and 73 ± 10% in assay [5]. Also, the EC50 in assay [1] was 0.0398 nM; in assay [2], 0.0631 nM; in assay [3], 0.282 nM; in assay [5] (IP1, CV1-FlpIn cells, 60 min, LiCl) it was 6.17 nM.
As to `CC(C)C[C@H](NC(=O)[C@H](CC(N)=O)NC(=O)[C@H](CC(N)=O)NC(=O)[C@H](CO)NC(=O)[C@H](CO)NC(=O)[C@H](CCCNC(=N)N)NC(=O)[C@@H](NC(=O)[C@H](CC(C)C)NC(=O)[C@H](Cc1ccccc1)NC(=O)[C@H](CC(N)=O)NC(=O)[C@H](C)NC(=O)[C@H](CC(C)C)NC(=O)[C@H](CCCNC(=N)N)NC(=O)[C@H](CCC(N)=O)NC(=O)[C@@H](NC(=O)[C@H](C)NC(=O)[C@@H]1CSSC[C@H](NC(=O)[C@@H](N)CCCCN)C(=O)N[C@@H](CC(N)=O)C(=O)N[C@@H]([C@@H](C)O)C(=O)N[C@@H](C)C(=O)N[C@@H]([C@@H](C)O)C(=O)N1)[C@@H](C)O)C(C)C)C(=O)NCC(=O)N1CCC[C@H]1C(=O)N[C@H](C(=O)N[C@@H](CC(C)C)C(=O)N1CCC[C@H]1C(=O)N1CCC[C@H]1C(=O)N[C@H](C(=O)N[C@@H](CC(N)=O)C(=O)N[C@H](C(=O)NCC(=O)N[C@@H](CO)C(=O)N[C@@H](CC(N)=O)C(=O)N[C@H](C(=O)N[C@@H](Cc1ccc(O)cc1)C(N)=O)[C@@H](C)O)C(C)C)[C@@H](C)O)C(C)C` [rAmy], the maximum response (Emax) in assay [1] stood at 81 ± 9%; in assay [2], 117 ± 13%; in assay [3], 74 ± 19%.
In the case of `CC(C)C[C@H](NC(=O)[C@H](CCCCN)NC(=O)CNC(=O)[C@H](CC(C)C)NC(=O)[C@@H](NC(=O)[C@@H]1CSSC[C@H](N)C(=O)N[C@@H](CO)C(=O)N[C@@H](CC(N)=O)C(=O)N[C@@H](CC(C)C)C(=O)N[C@@H](CO)C(=O)N[C@@H]([C@@H](C)O)C(=O)N1)C(C)C)C(=O)N[C@@H](CO)C(=O)N[C@@H](CCC(N)=O)C(=O)N[C@@H](CCC(=O)O)C(=O)N[C@@H](CC(C)C)C(=O)N[C@@H](Cc1c[nH]cn1)C(=O)N[C@@H](CCCCN)C(=O)N[C@@H](CC(C)C)C(=O)N[C@@H](CCC(N)=O)C(=O)N[C@H](C(=O)N[C@@H](Cc1ccc(O)cc1)C(=O)N1CCC[C@H]1C(=O)N[C@@H](CCCNC(=N)N)C(=O)N[C@H](C(=O)N[C@@H](CC(N)=O)C(=O)N[C@H](C(=O)NCC(=O)N[C@@H](CO)C(=O)NCC(=O)N[C@H](C(=O)N1CCC[C@H]1C(N)=O)[C@@H](C)O)[C@@H](C)O)[C@@H](C)O)[C@@H](C)O` [sCT], the maximal response (Emax) in assay [1] was 90 ± 6%; in assay [2], 112 ± 9%; in assay [3], 138 ± 13%; in assay [4] (F356A, IP1 maximal response, mean ± S.E.M.), 36 ± 3%; in assay [5], 86 ± 9%.
